Results reported in the NIST ThermoML archive (doi:10.1021/je300382a).

How the values were obtained:
[1] = xn = mol fraction of the nth substance listed; conditions: Ring tensiometer
[2] = refractive index (Na D-line) (dimensionless); xn = mol fraction of the nth substance listed; conditions: 101 kPa, Liquid, Standard Abbe refractometry

CC(N)CN (stereo not given) [1,2-propanediamine] + O
Conditions | refractive index, 283.15 K | refractive index, 293.15 K | refractive index, 303.15 K | refractive index, 313.15 K | refractive index, 323.15 K | surface tension liquid-gas, 283.15 K [mN/m] | surface tension liquid-gas, 293.15 K [mN/m] | surface tension liquid-gas, 303.15 K [mN/m] | surface tension liquid-gas, 313.15 K [mN/m] | surface tension liquid-gas, 323.15 K [mN/m]
[1], x1 = 0.01 | – | – | – | – | – | 67.4 | 66.1 | 64.7 | 62.8 | 61
[1], x1 = 0.03 | – | – | – | – | – | 62.1 | 60.5 | 58.7 | 57.3 | 56
[1], x1 = 0.05 | – | – | – | – | – | 58.1 | 56.4 | 55 | 53.7 | 52.2
[1], x1 = 0.07 | – | – | – | – | – | 55 | 53.5 | 51.9 | 50.5 | 49.1
[1], x1 = 0.1 | – | – | – | – | – | 51.7 | 50.5 | 48.9 | 47.3 | 45.8
[1], x1 = 0.2 | – | – | – | – | – | 47.6 | 46.4 | 45 | 43.2 | 41.9
[1], x1 = 0.3 | – | – | – | – | – | 44.8 | 43.7 | 42.4 | 41 | 39.7
[1], x1 = 0.4 | – | – | – | – | – | 42.5 | 41.1 | 40.1 | 38.6 | 37.4
[1], x1 = 0.5 | – | – | – | – | – | 40.6 | 39.2 | 37.9 | 36.6 | 35.5
[1], x1 = 0.6 | – | – | – | – | – | 38.3 | 37.2 | 36.1 | 35.1 | 33.9
[1], x1 = 0.7 | – | – | – | – | – | 37.5 | 36.4 | 35.2 | 34.1 | 32.9
[1], x1 = 0.8 | – | – | – | – | – | 36.2 | 35.1 | 33.9 | 32.7 | 31.7
[1], x1 = 0.9 | – | – | – | – | – | 35.4 | 34.2 | 33 | 31.9 | 30.7
[1], x1 = 1 | – | – | – | – | – | 35 | 33.8 | 32.7 | 31.4 | 30.3
[2], x1 = 0.01 | 1.34 | 1.3392 | 1.3381 | 1.3366 | 1.3352 | – | – | – | – | –
[2], x1 = 0.03 | 1.3522 | 1.3512 | 1.3499 | 1.3488 | 1.3478 | – | – | – | – | –
[2], x1 = 0.05 | 1.3635 | 1.3621 | 1.3604 | 1.3592 | 1.3579 | – | – | – | – | –
[2], x1 = 0.07 | 1.374 | 1.3723 | 1.3703 | 1.3685 | 1.3667 | – | – | – | – | –
[2], x1 = 0.1 | 1.3882 | 1.3859 | 1.3835 | 1.3816 | 1.3797 | – | – | – | – | –
[2], x1 = 0.2 | 1.4209 | 1.4173 | 1.4137 | 1.4111 | 1.4085 | – | – | – | – | –
[2], x1 = 0.3 | 1.4356 | 1.4317 | 1.4273 | 1.4236 | 1.4208 | – | – | – | – | –
[2], x1 = 0.4 | 1.4448 | 1.4405 | 1.4363 | 1.4321 | 1.4279 | – | – | – | – | –
[2], x1 = 0.5 | 1.4486 | 1.4443 | 1.4401 | 1.4356 | 1.4311 | – | – | – | – | –
[2], x1 = 0.6 | 1.4504 | 1.4459 | 1.4415 | 1.4369 | 1.4323 | – | – | – | – | –
[2], x1 = 0.7 | 1.4511 | 1.4466 | 1.4418 | 1.4374 | 1.4325 | – | – | – | – | –
[2], x1 = 0.8 | 1.4515 | 1.4468 | 1.442 | 1.4371 | 1.4323 | – | – | – | – | –
[2], x1 = 0.9 | 1.4512 | 1.4465 | 1.4415 | 1.4368 | 1.4319 | – | – | – | – | –
[2], x1 = 1 | 1.451 | 1.4458 | 1.4409 | 1.4362 | 1.4314 | – | – | – | – | –
